Data on 16 molecules can be found in patent US9814704B2, “Substituted pyrrolo[2,3-b]pyridines as MLK inhibitors” (The University of Rochester, priority 2008, dated 2017).

Where only a bound is given, the exact number is not on record here.

Chain of MLK3 (Q16584 whole entry): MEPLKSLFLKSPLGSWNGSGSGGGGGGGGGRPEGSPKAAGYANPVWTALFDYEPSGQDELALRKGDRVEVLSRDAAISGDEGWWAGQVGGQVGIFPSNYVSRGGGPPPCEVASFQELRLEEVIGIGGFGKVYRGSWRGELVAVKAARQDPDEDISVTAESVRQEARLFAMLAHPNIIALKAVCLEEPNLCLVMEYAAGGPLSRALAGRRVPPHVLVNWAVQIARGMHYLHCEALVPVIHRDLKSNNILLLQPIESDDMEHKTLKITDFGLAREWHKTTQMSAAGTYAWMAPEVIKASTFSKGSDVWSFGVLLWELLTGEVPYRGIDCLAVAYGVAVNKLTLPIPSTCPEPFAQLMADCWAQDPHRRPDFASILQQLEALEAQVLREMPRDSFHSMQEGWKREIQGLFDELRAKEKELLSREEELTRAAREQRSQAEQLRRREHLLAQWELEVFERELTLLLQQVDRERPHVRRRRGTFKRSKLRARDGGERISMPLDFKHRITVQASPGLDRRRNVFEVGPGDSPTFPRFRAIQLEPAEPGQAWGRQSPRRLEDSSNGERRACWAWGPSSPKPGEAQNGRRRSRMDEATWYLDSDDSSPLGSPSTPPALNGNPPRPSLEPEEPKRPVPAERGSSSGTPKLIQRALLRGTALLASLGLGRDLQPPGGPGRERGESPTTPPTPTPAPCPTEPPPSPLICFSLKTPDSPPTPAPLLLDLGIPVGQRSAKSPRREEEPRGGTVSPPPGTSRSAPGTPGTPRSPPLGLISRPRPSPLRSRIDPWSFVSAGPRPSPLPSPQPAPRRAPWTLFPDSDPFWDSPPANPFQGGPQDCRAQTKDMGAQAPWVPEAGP

For one assay, the target named is MLK3 (Homo sapiens (Human), UniProt Q16584). The assay can be described thus: Radiometric Filter Plate MLK3 Assay. The class given is biochemical. Particulars: 200 ng (130 nM) MLK3, 1 μM inactive MKK7b, 2 μM cold ATP (Km), 33P ATP, twenty minute incubation; read-out: MK3 IC50. The protocol:
Radiometric Filter Plate MLK3 Assay
After a twenty minute incubation, the reactions were washed through filter plates and read on a scintillation counter. Results are shown in Table 4 below, in which +++ indicates ≦0.1 μM, ++ indicates >0.1 μM and ≦1 μM, and + indicates >1 μM.
In the case of `CC(=O)Nc1ccc(-c2cnc3[nH]cc(-c4ccc5[nH]ccc5c4)c3c2)cc1` [Example 3, N-(4-(3-(1H-indol-5-yl)-1H-pyrrolo[2,3-b]pyridin-5-yl)phenyl)acetamide], the IC50 is below 100 nM.

Regarding `COc1cc(-c2cnc3[nH]cc(-c4ccc5[nH]ccc5c4)c3c2)ccc1N` [Example 5, 4-(3-(1H-indol-5-yl)-1H-pyrrolo[2,3-b]pyridin-5-yl)-2-methoxyaniline], the IC50 is below 100 nM. Regarding `CN1CCN(c2cc(-c3cnc4[nH]cc(-c5ccc6[nH]ccc6c5)c4c3)ccn2)CC1` [Example 7, 3-(1H-indol-5-yl)-5-(2-(4-methylpiperazin-1-yl)pyridin-4-yl)-1H-pyrrolo[2,3-b]pyridine], the IC50 is below 100 nM.

On to `Nc1ccc(-c2cnc3[nH]cc(-c4ccc5[nH]ccc5c4)c3c2)cc1` [Example 8, 4-(3-(1H-indol-5-yl)-1H-pyrrolo[2,3-b]pyridin-5-yl)aniline], for which the IC50 was below 100 nM. `CS(=O)(=O)Nc1ccc(-c2cnc3[nH]cc(-c4ccc5[nH]ccc5c4)c3c2)cc1` [Example 11, N-(4-(3-(1H-indol-5-yl)-1H-pyrrolo[2,3-b]pyridin-5-yl)phenyl)methanesulfonamide]: the IC50 was below 100 nM. Regarding `COc1cc(-c2cnc3[nH]cc(-c4ccc(N)cc4)c3c2)cc(OC)c1OC` [Example 15, 4-(5-(3,4,5-trimethoxyphenyl)-1H-pyrrolo[2,3-b]pyridin-3-yl)aniline], the IC50 is below 100 nM.

On to `COc1cc(-c2cnc3[nH]cc(-c4ccc(NC(C)=O)cc4)c3c2)cc(OC)c1OC` [Example 16, N-(4-(5-(3,4,5-trimethoxyphenyl)-1H-pyrrolo[2,3-b]pyridin-3-yl)phenyl)acetamide], for which the IC50 is below 100 nM.

As for `COc1cc(-c2cnc3[nH]cc(-c4ccc(N(C)C)nc4)c3c2)cc(OC)c1OC` [Example 19, N,N-dimethyl-5-(5-(3,4,5-trimethoxyphenyl)-1H-pyrrolo[2,3-b]pyridin-3-yl)pyridin-2-amine], the concentration for half-maximal inhibition (IC50) is below 100 nM.

For `Nc1ncc(-c2cnc3[nH]cc(-c4cnc(N)nc4)c3c2)cn1` [Example 20, 5,5′-(1H-pyrrolo[2,3-b]pyridine-3,5-diyl)dipyrimidin-2-amine], the IC50 was above 1000 nM.

Still in this assay, the particulars now being: read-out: MK3 IC50.
Consider `COc1cc(-c2cnc3c(c2)C(=Cc2cccnc2)C(=O)N3)cc(OC)c1OC` (racemic) [Example 128, 3-pyridin-3-ylmethylene-5-(3,4,5-trimethoxy-phenyl)-1,3-dihydro-pyrrolo[2,3-b]pyridin-2-one], for which the IC50 lay in the range of 100 to 1000 nM. For `COc1ccc(-c2cnc3[nH]cc(-c4ccc5[nH]ccc5c4)c3c2)cc1OC` [Example 2, 5-(3,4-dimethoxyphenyl)-3-(1H-indol-5-yl)-1H-pyrrolo[2,3-b]pyridine], the IC50 was 100 to 1000 nM.

For the molecule `COc1ccc(-c2cnc3[nH]cc(-c4ccc5[nH]ccc5c4)c3c2)cn1` [Example 6, 3-(1H-indol-5-yl)-5-(6-methoxypyridin-3-yl)-1H-pyrrolo[2,3-b]pyridine], the IC50 was in the range of 100 to 1000 nM. Regarding `c1cc2cc(-c3c[nH]c4ncc(-c5ccc(N6CCNCC6)nc5)cc34)ccc2[nH]1` [Example 10, 3-(1H-indol-5-yl)-5-(6-(piperazin-1-yl)pyridin-3-yl)-1H-pyrrolo[2,3-b]pyridine], the half-maximal inhibitory concentration (IC50) fell in the range of 100 to 1000 nM. Still for that read-out and setting: the figure for `c1cc2cc(-c3cnc4[nH]cc(-c5ccc6[nH]ccc6c5)c4c3)ccc2[nH]1` [Example 12, 3,5-di(1H-indol-5-yl)-1H-pyrrolo[2,3-b]pyridine] is 100 to 1000 nM; for `CN(C)c1ccc(-c2cnc3[nH]cc(-c4ccc5[nH]ccc5c4)c3c2)cn1` [Example 13, 5-(3-(1H-indol-5-yl)-1H-pyrrolo[2,3-b]pyridin-5-yl)-N,N-dimethylpyridin-2-amine] it is 100 to 1000 nM; for `c1ccc(-c2cnc3[nH]cc(-c4ccc5[nH]ccc5c4)c3c2)cc1` [Example 14, 3-(1H-indol-5-yl)-5-phenyl-1H-pyrrolo[2,3-b]pyridine] it is 100 to 1000 nM.
